We go through 5 compounds from ChEMBL document CHEMBL1201862, “PubChem BioAssay data set” (2004).

For orientation: IC50 means the concentration that gives 50% inhibition. The EC50 is the concentration giving half of the maximal effect.

Active and inactive are the calls of the source. Bounds are passed on as bounds.

Assay [1] in a line: Vero cell cytotoxicity, dose response, cytotoxicity control for Vif-APOBEC3G degradation inhibitor project, Vero cells (AID 1117358). The class given is functional. The note with it: Human immunodeficiency virus 1, Vero.
Assay [2] is described as follows: HeLa cell cytotoxicity, dose response, cytotoxicity control for MgcRacGAP inhibitor project (AID 624300). The class given is functional.
A short description of assay [3]: THP-1 cell cytotoxicity, dose response, cytotoxicity control for Vif-APOBEC3G degradation inhibitor project, THP-1 cells (AID 1117359). It counts as functional. The note with it: Human immunodeficiency virus 1, THP-1.
Assay [4] deals with T1, Rac GTPase-activating protein 1 (Homo sapiens, UniProt Q9H0H5).
T1 sequence (Q9H0H5 whole entry): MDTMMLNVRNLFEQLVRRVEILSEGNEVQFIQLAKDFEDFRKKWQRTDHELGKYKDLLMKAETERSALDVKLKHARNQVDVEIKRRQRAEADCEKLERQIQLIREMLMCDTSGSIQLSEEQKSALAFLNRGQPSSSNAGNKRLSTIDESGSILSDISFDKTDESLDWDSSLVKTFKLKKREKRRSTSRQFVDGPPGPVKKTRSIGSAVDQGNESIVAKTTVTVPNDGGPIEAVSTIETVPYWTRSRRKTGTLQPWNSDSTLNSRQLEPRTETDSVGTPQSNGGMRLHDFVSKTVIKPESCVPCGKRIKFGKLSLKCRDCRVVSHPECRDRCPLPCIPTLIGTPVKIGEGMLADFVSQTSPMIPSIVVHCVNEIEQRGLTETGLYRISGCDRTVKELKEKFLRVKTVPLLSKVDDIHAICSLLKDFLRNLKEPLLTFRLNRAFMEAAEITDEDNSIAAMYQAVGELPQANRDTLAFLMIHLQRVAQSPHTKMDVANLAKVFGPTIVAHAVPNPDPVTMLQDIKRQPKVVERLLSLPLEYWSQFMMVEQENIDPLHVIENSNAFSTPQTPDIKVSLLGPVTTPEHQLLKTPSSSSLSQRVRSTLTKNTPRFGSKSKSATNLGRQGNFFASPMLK
The assay is described as follows: MgcRacGAP GTPase-activating activity inhibitors, confirmation, biochemical, ADP Hunter fluorescence, primary and confirmatory (AID 624330). It counts as functional.

Assay [5] addresses T2, Calpain-2 catalytic subunit (Sus scrofa, UniProt P43367).
T2 sequence (P43367 whole entry): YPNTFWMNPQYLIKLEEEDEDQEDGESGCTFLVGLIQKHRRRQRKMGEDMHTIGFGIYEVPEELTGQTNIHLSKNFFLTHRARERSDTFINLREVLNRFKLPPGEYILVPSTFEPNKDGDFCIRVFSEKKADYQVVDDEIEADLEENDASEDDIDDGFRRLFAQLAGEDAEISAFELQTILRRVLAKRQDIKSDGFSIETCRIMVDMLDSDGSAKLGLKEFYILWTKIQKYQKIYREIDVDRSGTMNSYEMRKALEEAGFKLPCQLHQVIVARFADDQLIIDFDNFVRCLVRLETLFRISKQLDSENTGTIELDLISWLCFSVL
The assay is described as follows: pig calpain II inhibitor potency, dose response, biochemical, fluorogenic peptide substrate (AID 1420). The class given is functional.

Another assay relates to Vero. The assay is described as follows: Vero cell cytotoxicity, cytotoxicity control for flavivirus capping enzyme inhibitors (AID 588742). As to conditions: Chlorocebus sabaeus. It counts as functional.
The target of the next assay is X-box-binding protein 1 (Homo sapiens, UniProt P17861). It counts as functional, Cricetulus griseus.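 Also: confirmatory dose-response counter-screen serving a CHOP assay.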
The next assay concerns the target Protein Tat (Human immunodeficiency virus type 1 group M subtype B (isolate HXB2)(HIV-1), UniProt P04608). It counts as functional.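 Also: tat binding to TAR RNA read out by fluorescence polarization.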
A short description of assay [6]: Fluorescence Cell-Based Dose Response to Identify Inhibitors of Thrombin Receptor-Activating Peptide SFLLRN-Mediated P-Selectin Induction on Platelets. [Related pubchem assays: 1663 (Primary HTS), 1889 (retest at dose ), 1891 (counterscreen), 1678 (Project Summary)]. It counts as functional. (A counterscreen serves to expose hits that act by an unwanted route or on another target.)

In assay [7] the target is Luciferin 4-monooxygenase (Photinus pyralis, UniProt P08659). Description: firefly luciferase enzyme inhibitors, dose response, biochemical, luminescence (AID 1891).
Assay [8] can be described thus: Luminescence Cell-Based Dose Confirmation HTS to Identify Inhibitors of Platelet Dense Granule Release. [Related pubchem assays: 1663 (Primary HTS), 1678 (Summary of Project)]. The class given is functional.
Assay [9] deals with HEK293. The assay is described as follows: cells. The class given is functional, cell-based. The note with it: Homo sapiens.
Assay [10] has as its target Nucleotide-binding oligomerization domain-containing protein 2 (Homo sapiens, UniProt Q9HC29). Description: NOD2 signaling inhibitors, cell-based, luminescence, uHTS, HEK293 (AID 1566). It counts as functional.
Assay [11] concerns HEK293. Description: cells. The class given is functional, cell-based. As to conditions: Homo sapiens. The source holds these as a separate data set.
Assay [12] concerns BJ. The assay is described as follows: cells. The class given is functional, cell-based. As to conditions: Homo sapiens.
Assay [13] deals with HEK293. Description: NOD2 signaling inhibitors in MDP-stimulated cells, cell-based, uHTS, luminescence (AID 2001). It counts as functional. The note with it: Homo sapiens.
Assay [14] has as its system BJ. Description: cytotoxicity toward BJ-TERT fibroblasts, dose response, cell-based, RAS-independent, luminescence (AID 1933). The class given is functional. The note with it: Homo sapiens.
For another assay, the target named is Melanocortin receptor 4 (Homo sapiens, UniProt P32245). Description: MC4R antagonist potency on cAMP, dose response, cell-based, TR-FRET, biased antagonists (AID 602298).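 Also: antagonist potency against agonist-stimulated cAMP production.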 The class given is functional. On the technique in general: TR-FRET usually uses a lanthanide donor and a delayed reading to cut background.
The target in assay [15] is Beta-2 adrenergic receptor (Homo sapiens, UniProt P07550). The assay is described as follows: beta2AR agonists driving receptor internalization, dose response, cell-based, FAP fluorogen, flow cytometry, cherry pick 1 (AID 588763). It counts as functional. (In general: A flow cytometer gives signals particle by particle.)
In assay [16] the target is E3 ubiquitin-protein ligase Mdm2 (Homo sapiens, UniProt Q00987). The assay is described as follows: enhancers of MDM2-luciferase reporter signal, concentration-effect titration, project on inhibitors of MDM2 ubiquitin ligase, cellular assay, luminescent readout, 384-well plate format (AID 1394).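 Also: MDM2 E3 inhibitors raise luminescence so EC50 is for signal enhancement.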 It counts as functional.
The test system of assay [17] is HEK293. Description: NOD1 signaling inhibitors, primary screen, cell-based, luminescence, uHTS (AID 1578). The class given is functional. The note with it: Homo sapiens.
Assay [18] is described as follows: cytotoxicity toward DRD oncogenic fibroblasts, dose response, cell-based, non-viral oncogenic, luminescence (AID 1934). The class given is functional. The note with it: Homo sapiens.
A short description of assay [19]: nonselective inhibitors of cellular cAMP signaling, dose response, counter-screen for MC4R biased antagonist project, cell-based, TR-FRET cAMP detection (AID 602305).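 Also: U2OS cells stimulated with forskolin near its EC80 as the cAMP inducer; potency is for inhibition of forskolin-stimulated cAMP signaling.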 It counts as functional.
In assay [20] the test system is HEK293. The assay is described as follows: cells. The class given is functional, cell-based. The note with it: Homo sapiens. This is another data set of the same source.
For assay [21], the system named is BJ. The assay is described as follows: cytotoxicity toward BJ-TERT-LT-ST fibroblasts, dose response, cell-based, RAS-independent, luminescence (AID 1935).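 Also: BJ fibroblasts immortalized with TERT plus LT and ST oncogenes.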 The class given is functional. As to conditions: Homo sapiens.
Another assay deals with Cytochrome P450 3A4 (Homo sapiens, UniProt P08684). As to conditions: Potency.
The target in the next assay is Cytochrome P450 2C19 (Homo sapiens, UniProt P33261). The assay is described as follows: qHTS Assay for Inhibitors and Substrates of Cytochrome P450 2C19. [Related pubchem assays: 410 ]. The class given is ADME. The note with it: read-out: Potency.
Assay [22] has as its target Heat shock protein HSP 90-alpha (Homo sapiens, UniProt P07900). The class given is functional, organism-based.
Assay [23] is described as follows: growth suppression of beta-catenin-knockout colon cells, dose response, cell-based, HCT116, human colon tumor (AID 1045).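 Also: HCT116 colon tumor cells with beta catenin knocked out; cells exposed to compound for 60 hours.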 It counts as functional.
Another assay has as its target Ephrin type-A receptor 4 (Mus musculus, UniProt Q03137). Description: inhibitors of EphA4 binding to KYL peptide, primary screen, biochemical, colorimetric, mouse EphA4 (AID 689). The class given is functional.
For the next assay, the target named is Cytochrome P450 2D6 (Homo sapiens, UniProt P10635).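 Also: CYP2D6 member of a cytochrome P450 panel assay.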
Assay [24] is described as follows: microbe, parasite or virus in culture. As to conditions: Mycobacterium tuberculosis. It counts as functional.
A short description of assay [25]: growth suppression of PTEN-null colon cells, dose response, cell-based, HCT116 PTEN knockout (AID 1047).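 Also: HCT116 colon tumor cells with PTEN knocked out; cells exposed to compound for 60 hours before readout; potency for loss of cell viability measured by luminescence.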 The class given is functional.

Sequence of Cytochrome P450 2C19 (P33261 whole entry): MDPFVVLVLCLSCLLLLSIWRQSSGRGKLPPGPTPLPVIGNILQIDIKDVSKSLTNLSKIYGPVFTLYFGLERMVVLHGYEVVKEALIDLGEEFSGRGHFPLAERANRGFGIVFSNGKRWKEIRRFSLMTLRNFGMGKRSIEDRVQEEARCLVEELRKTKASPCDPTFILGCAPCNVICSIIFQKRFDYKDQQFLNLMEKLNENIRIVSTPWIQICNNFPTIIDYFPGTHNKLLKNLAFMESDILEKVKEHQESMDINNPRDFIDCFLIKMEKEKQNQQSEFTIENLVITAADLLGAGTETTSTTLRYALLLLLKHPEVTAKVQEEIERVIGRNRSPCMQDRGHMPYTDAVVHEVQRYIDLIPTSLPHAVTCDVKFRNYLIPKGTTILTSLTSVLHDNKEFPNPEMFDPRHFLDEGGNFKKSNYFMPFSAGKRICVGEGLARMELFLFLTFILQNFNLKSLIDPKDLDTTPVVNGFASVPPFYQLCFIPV
Sequence of Melanocortin receptor 4 (P32245 whole entry): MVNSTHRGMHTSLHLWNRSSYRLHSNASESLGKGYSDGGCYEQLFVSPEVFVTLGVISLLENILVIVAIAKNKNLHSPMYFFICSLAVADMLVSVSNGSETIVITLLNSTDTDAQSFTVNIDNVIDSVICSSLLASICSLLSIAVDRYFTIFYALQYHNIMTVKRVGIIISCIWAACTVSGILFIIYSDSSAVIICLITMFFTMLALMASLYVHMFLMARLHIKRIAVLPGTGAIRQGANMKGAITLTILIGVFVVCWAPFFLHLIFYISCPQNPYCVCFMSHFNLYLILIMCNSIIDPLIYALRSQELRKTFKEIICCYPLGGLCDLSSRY
Sequence of Nucleotide-binding oligomerization domain-containing protein 2 (Q9HC29 whole entry, the tested form may be a part): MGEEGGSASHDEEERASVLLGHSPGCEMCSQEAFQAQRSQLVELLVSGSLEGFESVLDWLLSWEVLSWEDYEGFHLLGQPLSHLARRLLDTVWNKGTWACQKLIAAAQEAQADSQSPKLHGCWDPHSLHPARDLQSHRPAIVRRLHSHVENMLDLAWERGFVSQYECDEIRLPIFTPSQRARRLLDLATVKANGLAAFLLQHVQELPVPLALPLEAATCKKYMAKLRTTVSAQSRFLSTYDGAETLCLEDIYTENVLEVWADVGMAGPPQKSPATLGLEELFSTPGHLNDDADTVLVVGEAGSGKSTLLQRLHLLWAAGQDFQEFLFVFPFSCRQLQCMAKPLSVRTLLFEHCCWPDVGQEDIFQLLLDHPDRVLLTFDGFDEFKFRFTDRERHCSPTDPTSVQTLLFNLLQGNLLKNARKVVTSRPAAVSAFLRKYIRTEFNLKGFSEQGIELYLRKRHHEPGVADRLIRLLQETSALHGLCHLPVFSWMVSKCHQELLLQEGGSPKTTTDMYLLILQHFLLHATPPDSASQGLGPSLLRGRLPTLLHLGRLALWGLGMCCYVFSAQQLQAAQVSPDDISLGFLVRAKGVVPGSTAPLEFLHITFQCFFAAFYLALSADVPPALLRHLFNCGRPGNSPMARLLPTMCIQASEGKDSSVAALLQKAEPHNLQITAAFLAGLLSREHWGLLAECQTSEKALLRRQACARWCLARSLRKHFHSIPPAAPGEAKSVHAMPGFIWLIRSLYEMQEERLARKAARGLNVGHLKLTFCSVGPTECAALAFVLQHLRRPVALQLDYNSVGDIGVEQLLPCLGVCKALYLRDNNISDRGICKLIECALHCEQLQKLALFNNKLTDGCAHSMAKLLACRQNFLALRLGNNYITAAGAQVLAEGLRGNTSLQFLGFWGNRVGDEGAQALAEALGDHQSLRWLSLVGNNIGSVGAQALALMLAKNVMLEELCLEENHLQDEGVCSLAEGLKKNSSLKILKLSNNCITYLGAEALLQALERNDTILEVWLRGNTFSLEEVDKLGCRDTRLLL
Sequence of X-box-binding protein 1 (P17861 whole entry): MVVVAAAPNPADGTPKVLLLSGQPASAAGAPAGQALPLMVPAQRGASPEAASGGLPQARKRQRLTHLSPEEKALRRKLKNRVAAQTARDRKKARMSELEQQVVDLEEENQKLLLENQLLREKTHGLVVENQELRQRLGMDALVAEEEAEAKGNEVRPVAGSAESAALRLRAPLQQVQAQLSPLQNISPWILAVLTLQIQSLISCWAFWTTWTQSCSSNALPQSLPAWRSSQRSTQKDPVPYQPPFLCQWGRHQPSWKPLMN
Sequence of Luciferin 4-monooxygenase (P08659 whole entry): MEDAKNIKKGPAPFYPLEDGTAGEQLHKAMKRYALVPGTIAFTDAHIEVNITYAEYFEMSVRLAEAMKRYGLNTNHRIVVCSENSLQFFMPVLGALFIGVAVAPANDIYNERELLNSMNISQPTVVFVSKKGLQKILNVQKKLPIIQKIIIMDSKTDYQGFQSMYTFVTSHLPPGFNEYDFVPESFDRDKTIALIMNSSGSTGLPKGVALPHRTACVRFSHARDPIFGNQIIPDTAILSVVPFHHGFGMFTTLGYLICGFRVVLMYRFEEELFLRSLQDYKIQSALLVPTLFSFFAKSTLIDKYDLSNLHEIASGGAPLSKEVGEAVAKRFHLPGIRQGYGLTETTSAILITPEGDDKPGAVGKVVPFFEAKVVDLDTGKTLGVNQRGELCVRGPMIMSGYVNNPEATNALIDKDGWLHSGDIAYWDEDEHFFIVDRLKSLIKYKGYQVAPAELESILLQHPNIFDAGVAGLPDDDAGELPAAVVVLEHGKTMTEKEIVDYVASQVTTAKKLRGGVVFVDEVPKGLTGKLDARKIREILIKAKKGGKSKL
Sequence of Cytochrome P450 3A4 (P08684 whole entry): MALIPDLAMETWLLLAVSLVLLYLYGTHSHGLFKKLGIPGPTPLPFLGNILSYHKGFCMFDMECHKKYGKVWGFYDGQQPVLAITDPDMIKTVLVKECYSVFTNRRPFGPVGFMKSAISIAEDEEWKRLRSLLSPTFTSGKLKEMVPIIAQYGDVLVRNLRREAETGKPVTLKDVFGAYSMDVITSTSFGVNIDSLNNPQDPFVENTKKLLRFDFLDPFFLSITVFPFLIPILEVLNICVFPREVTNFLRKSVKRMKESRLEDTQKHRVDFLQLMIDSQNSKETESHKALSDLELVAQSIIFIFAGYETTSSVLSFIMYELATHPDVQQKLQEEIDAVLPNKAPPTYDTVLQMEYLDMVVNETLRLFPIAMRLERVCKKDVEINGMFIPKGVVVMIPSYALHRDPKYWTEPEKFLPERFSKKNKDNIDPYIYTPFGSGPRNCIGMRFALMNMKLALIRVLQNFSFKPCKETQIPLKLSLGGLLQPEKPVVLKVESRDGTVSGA
Sequence of Beta-2 adrenergic receptor (P07550 whole entry): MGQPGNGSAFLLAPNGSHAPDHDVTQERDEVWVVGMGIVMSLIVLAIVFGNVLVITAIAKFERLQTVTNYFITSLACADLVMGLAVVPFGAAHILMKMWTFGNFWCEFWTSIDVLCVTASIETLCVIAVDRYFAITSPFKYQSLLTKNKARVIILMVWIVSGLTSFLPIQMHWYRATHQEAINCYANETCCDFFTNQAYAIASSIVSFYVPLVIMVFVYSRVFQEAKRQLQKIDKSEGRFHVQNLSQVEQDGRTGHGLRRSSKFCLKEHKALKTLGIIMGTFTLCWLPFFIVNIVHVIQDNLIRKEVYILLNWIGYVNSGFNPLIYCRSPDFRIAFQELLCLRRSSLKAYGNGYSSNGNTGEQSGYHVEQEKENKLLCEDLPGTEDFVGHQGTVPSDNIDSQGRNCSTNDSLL
Sequence of Protein Tat (P04608 whole entry): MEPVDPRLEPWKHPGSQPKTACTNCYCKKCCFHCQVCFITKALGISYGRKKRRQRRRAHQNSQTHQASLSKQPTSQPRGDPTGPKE
Sequence of E3 ubiquitin-protein ligase Mdm2 (Q00987 whole entry): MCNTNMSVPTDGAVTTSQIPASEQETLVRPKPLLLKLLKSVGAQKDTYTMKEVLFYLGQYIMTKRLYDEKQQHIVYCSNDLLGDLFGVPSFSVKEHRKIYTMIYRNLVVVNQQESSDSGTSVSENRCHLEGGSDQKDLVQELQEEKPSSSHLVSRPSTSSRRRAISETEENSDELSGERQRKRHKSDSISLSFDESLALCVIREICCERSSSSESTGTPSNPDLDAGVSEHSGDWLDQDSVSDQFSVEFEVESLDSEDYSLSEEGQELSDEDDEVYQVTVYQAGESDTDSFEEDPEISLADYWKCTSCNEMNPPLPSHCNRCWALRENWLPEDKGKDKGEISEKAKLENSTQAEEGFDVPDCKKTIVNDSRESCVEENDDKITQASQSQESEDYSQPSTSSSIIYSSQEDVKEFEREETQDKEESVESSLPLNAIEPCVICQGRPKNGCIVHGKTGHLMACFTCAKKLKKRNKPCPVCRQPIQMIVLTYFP
Sequence of Cytochrome P450 2D6 (P10635 whole entry): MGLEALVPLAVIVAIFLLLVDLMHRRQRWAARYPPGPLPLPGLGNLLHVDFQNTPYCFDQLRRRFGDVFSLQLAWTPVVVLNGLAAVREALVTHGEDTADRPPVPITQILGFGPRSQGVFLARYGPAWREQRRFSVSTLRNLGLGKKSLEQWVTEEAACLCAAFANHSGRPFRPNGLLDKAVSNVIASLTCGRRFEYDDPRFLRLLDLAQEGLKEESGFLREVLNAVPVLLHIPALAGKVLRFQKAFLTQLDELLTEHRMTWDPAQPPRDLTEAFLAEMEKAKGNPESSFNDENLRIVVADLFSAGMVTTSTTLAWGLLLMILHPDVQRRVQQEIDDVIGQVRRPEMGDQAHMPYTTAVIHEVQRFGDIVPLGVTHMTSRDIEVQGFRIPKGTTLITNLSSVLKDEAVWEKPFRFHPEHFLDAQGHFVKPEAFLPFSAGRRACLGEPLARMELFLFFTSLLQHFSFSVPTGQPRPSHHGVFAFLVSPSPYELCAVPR

Consider `CCOc1cccc(CNc2ccc(O)cc2)c1OCc1ccc(Cl)cc1Cl`, for which the CC50 in assay [1] is > 40 µM (active); in assay [2], 85.7 µM (active); in assay [3], 30.4 µM (active); in the assay with Vero, 36.4 µM (active). The IC50 is 118 µM (active) in assay [4], 8.34 µM (not active) in assay [5] and > 100 µM (inconclusive) on Protein Tat. Besides, the “Absolute IC50 (XBP1)” value on X-box-binding protein 1 amounted to 10 µM.

Regarding `CCS(=O)(=O)Nc1ccc(-c2nnc(SCC(=O)OC)o2)cc1`, the EC50 is < 30 µM (active) in assay [6], > 112 µM (not active) in assay [7] and 6.33 µM (active) in assay [8].

As to `O=C(COC(=O)c1ccccc1C(=O)c1ccc(Cl)c([N+](=O)[O-])c1)NC1CCCCCC1`, the IC50 with HEK293 [9] is > 20 µM (inactive); in the assay with HEK293 [11] it was 18.3 µM (active); with HEK293 [13] it was 3.13 µM (active); on Melanocortin receptor 4, 26.6 µM (inactive); in [19], > 64.6 µM (inactive); in the assay on HEK293 [20] it was 1.9 µM (active). The EC50 is > 20 µM (inactive) in assay [10]; 9.86 µM (inconclusive) with BJ [12]; 4.41 µM (active) in the assay with BJ [14]; 42.3 µM (inactive) in assay [15]; 12.4 µM (not active) in [16]; 3.78 µM (active) in the assay with HEK293 [17]. For the same compound, the EC50 in assay [18] was 4.47 µM (active); with BJ [21] it was 4.91 µM (inconclusive).

For `CC1CCC2C(=O)N3C(CCC(C)[C@@H]3c3ccc(Br)cc3)C(=O)N2C1c1ccc(Br)cc1` (stereo partly drawn), the AC50 at Cytochrome P450 3A4 is 5.01 µM (inconclusive); on Cytochrome P450 2C19, 3.98 µM (inconclusive).

In the case of `O=[N+]([O-])/C=C/c1cn(Cc2ccccc2)c2ccccc12`, the figures for the AC50 (in [22]; at Cytochrome P450 2D6) were 6.43 µM (active) and 15.8 µM (inconclusive), respectively. The EC50 in [23] is 13.2 µM (active); in assay [25] it was 15.8 µM (active). At Ephrin type-A receptor 4, the IC50 was 2.3 µM (active). For the same compound, the CC50 in assay [24] is > 40 µM (active).
